What was measured:
stress ulcer = assay: WIS: Restraint and Water Immersion Stress-Induced Ulcer Inhibition Test; type: in vivo, male Crj:SD or Slc:SD rats; settings: rat, 100 mg/kg oral, 7 h water immersion stress; read-out: ulcer formation inhibitory rate (WIS)
Method: WIS: Restraint and Water Immersion Stress-Induced Ulcer Inhibition Test
The degree of inhibition of the stress ulcer formation is tested.
Male Crj:SD or Slc:SD rats (6 to 7-week-old) were fasted overnight, but allowed free access to water. Each group has 5 to 8 of these rats. The sample compound was dissolved or suspended in an aqueous solution of 0.3% sodium carboxymethylcellulose or 0.05% Tween 80 and then was orally administered (100 mg/10 ml/kg. To a control group, the vehicle was administered. 10 minutes later, the rats were placed in a stress cage and immersed to the level of xipfoid process in a water bath (21° C.) for 7 hours. At the end of the stress, the rats were sacrificed by inhalation of ether or carbon dioxide. Then, the stomach of each was removed, inflated by injecting 10 ml of 5% formalin neutral buffer solution, and immersed in 1% formalin neutral buffer solution for 30 minutes or more to be fixed. The stomach was incised along the greater curvature and then the length of each erosion in the glandular portion was determined under dissecting microscope. The sum of the length of erosions per stomach was defined as ulcer index (UI).
The effect obtained when 100 mg/kg of the sample compound had been administered was expressed as ulcer formation inhibitory rate (%) as follows:
ulcer formation inhibitory rate (%)=(1-(UI in sample group/UI in control group))×100

[1] = MTT: Cell Damaging and Protecting Effect Test; type: cell-based, male Japanese White rabbit; settings: rabbit, gastric mucosa cells, final concentration 10^-4 M, smaller value is better, read-out: cell damaging rate (MTT)
Source text: MTT: Cell Damaging and Protecting Effect Test
It is confirmed that there is no toxicity in cell level. Those having a toxicity in cell level are inappropriate as an anti-ulcer drug.
A male Japanese White rabbit (2.5 to 3 kg) was anesthetized to death by Nembutal™ and, immediately thereafter, its stomach was removed. The greater curvature of the stomach was incised so as to remove the stomach contents therefrom. After the mucosal surface was washed with HBSS (Hanks' Balanced Salt Solution), the stomach in ice-cooled HBSS was transferred to a laboratory. Then, after the pyloric antrum was removed, the gastric corpus mucosa was separated by a spatula and then minced into 2 to 3 mm^3 pieces in BME (Basal Medium Eagle). Thereafer, these pieces were shaken at 120 to 130 cycles/minute for 15 minutes at 37° C. in BME 60 ml containing 280 U/ml of dispase and 30 to 50 U/ml of collagenase. Here, the concentration of collagenase was appropriately changed for each lot in view of the state of cells. The pieces were washed twice with EBSS (Earle's Balanced Salt Solution) containing 1 mM of EDTA and then shaken in MEM (Minimum Essential Medium) containing 1 mM of EDTA at 37° C. for 5 minutes. Subsequently, they were shaken in the dispase and collagenase having the same concentrations as those mentioned above for 15 minutes so as to remove the supernatant and then further shaken at 37° C. for 50 to 60 minutes at 120 to 130 cycles/minute. Then, after being washed twice with HBSS, Ham F12 containing 2% of Ultrocer G™ was used to attain the concentration of 1×10^6 cells/ml. Thus formed suspension was dispensed in each well of a 96-well plate by 200 μl. The plate was incubated in the atmosphere composed of 5% CO2 and 95% air at 37° C. for three days so as to attain a confluent state and then subjected to MTT assay.
The sample compound was dissolved in DMSO so as to attain a concentration of 10^-2 M and then diluted with HBSS containing 2% of Ultrocer G™ so as to attain a final concentration of 10^-4 M. To each group, which 8 wells were used for, 10 μl of MTT reagent was added immediately after 100 μl of the medium in each well was exchanged for same volume of the resulting solution of the sample compound. After being incubated in an atmosphere composed of 5% CO2 and 95% air at 37° C. for 4 hours, thus formed solution was centrifuged and then its supernatant was discarded. Subsequently, 100 μl of 100% ethanol was added to the residue so as to dissolve MTT formazan. Then, the absorbance (OD: 570 to 630) was measured by a microplate reader. This method utilizes a phenomenon in which MTT is changed to MTT formazan only by mitochondria of living cells so as to change color.
The cell damaging or cell protecting effect of the sample compound at the final concentration of 10^-4 M was expressed as cell damaging rate (%) as follows:
cell damaging rate (%)=(1-(absorbance in sample group/absorbance in control group))×100
Accordingly, the smaller value is better in the cell damaging rate.

SMILES	inhibition in vivo at 100 mg/kg (stress ulcer)	cytotoxicity at 4 h, 100 µM [1]
CCN1CCCC1CNC(=O)c1ccc(OC/C=C(\C)CCC=C(C)C)cc1 (centres unmarked) [Example 1, 1-ethyl-2-(4-geranyloxybenzoylaminomethyl)pyrrolidine]	80%	–
CCN1CCCC1CNC(=O)c1ccc(OC/C=C(\C)CCC=C(C)C)cc1OC/C=C(\C)CCC=C(C)C (centres unmarked) [Example 9, 1-ethyl-2-(2,4-digeranyloxybenzoylaminomethyl)pyrrolidine]	66%	–
CCN1CCCC1CNC(=O)c1ccc(OC/C=C(\C)CCC=C(C)C)c(OC/C=C(\C)CCC=C(C)C)c1 (centres unmarked) [Example 11, 1-ethyl-2-(3,4-digeranyloxybenzoylaminomethyl)pyrrolidine]	75%	–
CCN1CCCC1CNC(=O)c1cc(OCC=C(C)C)c(OCC=C(C)C)c(OCC=C(C)C)c1 (centres unmarked) [Example 13, 1-ethyl-2-(3,4,5-triprenyloxybenzoylaminomethyl)pyrrolidine]	57%	–
CCN1CCCC1CNC(=O)c1ccc(OC)c(OC/C=C(\C)CCC=C(C)C)c1 (centres unmarked) [Example 15, 1-ethyl-2-(3-geranyloxy-4-methoxybenzoylaminomethyl)pyrrolidine]	91%	2%
CCN1CCCC1CNC(=O)c1ccc(OC)cc1OC/C=C(\C)CCC=C(C)C (centres unmarked) [Example 18, 1-ethyl-2-(2-geranyloxy-4-methoxybenzoylaminomethyl)pyrrolidine]	76%	4%
CCN1CCCC1CNC(=O)c1cc(OC)ccc1OC/C=C(\C)CCC=C(C)C (centres unmarked) [Example 19, 1-ethyl-2-(2-geranyloxy-5-methoxybenzoylaminomethyl)pyrrolidine]	89%	21%
CCN1CCCC1CNC(=O)c1cc(F)ccc1OC/C=C(\C)CCC=C(C)C (centres unmarked) [Example 20, 1-ethyl-2-(3-fluoro-6-geranyloxybenzoylaminomethyl)pyrrolidine]	89%	23%
CCN1CCCC1CNC(=O)c1cc(OC)c(OC/C=C(\C)CCC=C(C)C)c(OC)c1 (centres unmarked) [Example 21, 1-ethyl-2-(3,5-dimethoxy-4-geranyloxybenzoylaminomethyl)pyrrolidine]	76%	–
CCN1CCCC1CNC(=O)c1cc(OC)c(OC)c(OC/C=C(\C)CCC=C(C)C)c1 (centres unmarked) [Example 22, 1-ethyl-2-(3,4-dimethoxy-5-geranyloxybenzoylaminomethyl)pyrrolidine]	80%	–
CCN1CCCC1CNC(=O)c1cc(OC)c(OCC=C(C)C)c(OC)c1 (centres unmarked) [Example 24, 1-ethyl-2-(3,5-dimethoxy-4-prenyloxybenzoylaminomethyl)pyrrolidine]	79%	12%
CCN1CCCC1CNC(=O)c1cccnc1OCC=C(C)C (centres unmarked) [Example 25, 1-ethyl-2-(2-prenyloxynicotinoylaminomethyl)pyrrolidine]	90%	-15%
CCN1CCCC1CNC(=O)c1ccc(OCC=C(C)C)nc1 (centres unmarked) [Example 26, 1-ethyl-2-(6-prenyloxynicotinoylaminomethyl)pyrrolidine]	48%	-8%

— patent US5925667A, “Pyrrolidine derivative, anti-ulcer drug, and antibacterial drug” (Shiseido Co., Ltd., priority 1997, dated 1999)
